Test results as given in US12281125B2, “Rapamycin derivatives” (NOVARTIS AG, priority 2018, dated 2025).

Experiments:
[1] = biological target: T1, FKBP52 (Homo sapiens, UniProt Q02790); assay: SPR assay, binding affinity to FKBP52; settings: equilibrium dissociation constant
T1 construct: made in house; host or cells: E. coli
T1 sequence (Q02790 1-459): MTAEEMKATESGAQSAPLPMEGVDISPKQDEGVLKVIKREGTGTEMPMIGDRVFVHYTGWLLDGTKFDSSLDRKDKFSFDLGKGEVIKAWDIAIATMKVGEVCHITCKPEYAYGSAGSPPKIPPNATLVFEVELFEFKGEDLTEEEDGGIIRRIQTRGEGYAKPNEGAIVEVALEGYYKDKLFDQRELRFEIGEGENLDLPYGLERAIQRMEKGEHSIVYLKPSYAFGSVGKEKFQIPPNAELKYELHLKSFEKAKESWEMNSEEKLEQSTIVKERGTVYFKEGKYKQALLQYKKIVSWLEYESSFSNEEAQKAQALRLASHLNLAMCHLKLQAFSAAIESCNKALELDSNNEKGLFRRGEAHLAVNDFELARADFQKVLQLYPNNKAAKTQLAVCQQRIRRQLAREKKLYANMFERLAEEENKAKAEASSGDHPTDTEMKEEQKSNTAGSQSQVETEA
Experimental: N-terminal avi-his6-tagged FKBP fusion proteins were expressed in E. coli and purified with nickel chromatography using standard procedures. Biotinylated his-avi-FKBPs were immobilized on a streptavidin chip using a Biacore 8K (GE Healthcare). To determine the kinetics-affinity of the rapalogs for FKBPs, rapalogs were diluted in DMSO to 50× working concentration. Next, 3.1 uLs of each rapalog solution was added to 150 uLs of buffer (50 mM Tris pH 7.5/150 mM NaCl/0.01% Tween 20/1 mM DTT) in a 384 deep well plate (greiner bio-one/78127) and mixed using a Biomek FX. The rapalog solution gradients (6 concentrations/2 fold dilutions, 3.1-100 nM or 31-1000 nM or 310-10000 nM) were then injected at 45 uL/min for 120 seconds: contact time and dissociation time was 1800 seconds in running buffer (50 mM Tris pH 7.5/150 mM NaCl/0.01% Tween 20/1 mM DTT/2% DMSO). The single-cycle kinetics data were fit to a 1:1 binding model to measure the association rate ka (1/Ms), the dissociation rate kd (1/s) and the affinity KD (M). […] 3.1 uLs of the 500 μM rapalog solutions were added to 150 uLs of the mTOR samples in a 384 deep well plate (greiner bio-one/78127) and mixed using a Biomek FX. The mTOR solution gradients were then injected at 45 uL/min for 120 seconds: contact time and dissociation time was 1800 seconds in running buffer (50 mM Tris pH 7.5/150 mM NaCl/0.01% Tween 20/1 mM DTT/2% DMSO). The single-cycle kinetics data was fit to a 1:1 binding model to measure the association rate ka (1/Ms), the dissociation rate kd (1/s) and the apparent affinity KD (M) for ternary complex formation.
The equilibrium dissociation constants (KD) to FKBP12, FKBP51, and FKBP52 are shown below in Table 6.

[2] = biological target: T2, FKBP51 (Homo sapiens, UniProt Q13451); assay: SPR assay, binding affinity to FKBP51; settings: equilibrium dissociation constant
T2 construct: made in house; host or cells: E. coli
T2 sequence (Q13451 1-457): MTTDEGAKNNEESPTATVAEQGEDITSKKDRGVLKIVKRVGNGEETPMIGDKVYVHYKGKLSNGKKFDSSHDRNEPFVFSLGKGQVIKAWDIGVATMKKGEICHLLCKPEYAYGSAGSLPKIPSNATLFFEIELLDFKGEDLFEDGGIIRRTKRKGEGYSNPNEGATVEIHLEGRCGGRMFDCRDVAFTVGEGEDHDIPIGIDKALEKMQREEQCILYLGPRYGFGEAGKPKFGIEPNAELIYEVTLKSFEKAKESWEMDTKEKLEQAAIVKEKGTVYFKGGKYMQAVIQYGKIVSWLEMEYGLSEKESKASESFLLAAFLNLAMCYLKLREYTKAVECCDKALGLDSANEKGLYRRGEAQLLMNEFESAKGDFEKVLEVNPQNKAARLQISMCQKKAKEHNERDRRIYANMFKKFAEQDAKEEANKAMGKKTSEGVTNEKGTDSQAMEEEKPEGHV
From the text: (§1) N-terminal avi-his6-tagged FKBP fusion proteins were expressed in E. coli and purified with nickel chromatography using standard procedures. Biotinylated his-avi-FKBPs were immobilized on a streptavidin chip using a Biacore 8K (GE Healthcare). […] The single-cycle kinetics data were fit to a 1:1 binding model to measure the association rate ka (1/Ms), the dissociation rate kd (1/s) and the affinity KD (M). […] The single-cycle kinetics data was fit to a 1:1 binding model to measure the association rate ka (1/Ms), the dissociation rate kd (1/s) and the apparent affinity KD (M) for ternary complex formation. The equilibrium dissociation constants (KD) to FKBP12, FKBP51, and FKBP52 are shown below in Table 6.

[3] = test system: mTORc1 signaling, pS6 (Ser240/244) in MEF TSCl−/− cells; assay: Cell-based assay for rapalog potency (pS6) in MEF TSCl−/− cells; settings: Mus musculus, 2 hours treatment, average from multiple assays
Experimental: Rapalog potency was determined using MEF TSCl−/− cell based assay. MEF TSCl−/− cells are Mouse Embryonic Fibroblasts deficient in Tuberous sclerosis protein—TSCl, which negatively regulates mTORc1 signaling and thus display constitutive mTORc1 activation, resulting in phosphorylation (activation) of downstream molecules. This cell-based assay is used to measure inhibition (de-phosphorylation) of S6 and 4EBP1 by rapalogs or other mTOR inhibitors.
MEF TSCl−/− cells were plated on Poly-D-lysine coated 384 well Griener clear bottom plates and incubated overnight at 37° C., 5% CO2. On the following day, cells were washed 8 times with “Hard starve” solution (1 L DPBS+1 g D-(+) glucose+10 ml of 7.5% Sodium Bicarbonate+20 ml of 1M HEPES) and incubated for further 2 hours in the same solution. Cells were next treated with compounds with decreasing concentrations (8 points at 3.16 fold dilutions) and incubated for 2 hours at 37° C., 5% CO2. Cells were fixed with 4% paraformaldehyde for 30 min and washed 5 times with TBS-EDTA followed by immuno-staining with fluorescent tag labeled antibodies for pS6 (Ser240/244) (Cell Signaling #9468) and p4EBP1 (Thr 37/46) (Cell Signaling #5123). Nuclei were visualized with Hoechst (ThermoFisher Scientific #H3570) staining. Cells were imaged (InCell 600) using respective fluorescence channels and the potency of mTOR inhibitors was defined by pS6 IC50 (nM).
In vitro potency of mTOR inhibitors was defined by pS6 IC50 (nM) in MEF TSCl−/− cells.
IC50 values are calculated as the average from multiple assays.

[4] = biological target: T3, FKBP12 (Homo sapiens, UniProt P62942); assay: SPR assay, binding affinity to FKBP12; settings: equilibrium dissociation constant
T3 construct: made in house; host or cells: E. coli
T3 sequence (P62942 whole entry): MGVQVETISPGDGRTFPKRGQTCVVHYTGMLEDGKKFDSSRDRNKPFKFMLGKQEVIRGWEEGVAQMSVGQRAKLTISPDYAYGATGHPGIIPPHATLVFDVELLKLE
From the text: as §1

Row | Kd [1] | Kd [2] | IC50 [3] | Kd [4] | Structure (SMILES)
1 | 9.8 nM | 11 nM | 0.55 nM | 0.061 nM | CO[C@@H]1C[C@H](C[C@@H](C)[C@@H]2CC[C@H](C)/C=C(\C)[C@@H](O)[C@@H](OC)C(=O)[C@H](C)C[C@H](C)/C=C/C=C/C=C(\C)[C@H](NS(C)(=O)=O)C[C@@H]3CC[C@@H](C)[C@@](O)(O3)C(=O)C(=O)N3CCCC[C@H]3C(=O)O2)CC[C@H]1O [Compound 1]
2 | 90 nM | 25 nM | 0.52 nM | 0.54 nM | CO[C@@H]1C[C@H](C[C@@H](C)[C@@H]2CC[C@H](C)/C=C(\C)[C@@H](O)[C@@H](OC)C(=O)[C@H](C)C[C@H](C)/C=C/C=C/C=C(\C)[C@@H](NS(C)(=O)=O)C[C@@H]3CC[C@@H](C)[C@@](O)(O3)C(=O)C(=O)N3CCCC[C@H]3C(=O)O2)CC[C@H]1OP(C)(C)=O [Compound 24]
3 | 80 nM | 47 nM | 0.086 nM | 0.83 nM | CO[C@@H]1C[C@H](C[C@@H](C)[C@@H]2CC[C@H](C)/C=C(\C)[C@@H](O)[C@@H](OC)C(=O)[C@H](C)C[C@H](C)/C=C/C=C/C=C(\C)[C@@H](NS(C)(=O)=O)C[C@@H]3CC[C@@H](C)[C@@](O)(O3)C(=O)C(=O)N3CCCC[C@H]3C(=O)O2)CC[C@H]1OCCO [Compound 26]
4 |  |  | 160 nM |  | CO[C@@H]1C[C@H](C[C@@H](C)[C@@H]2CC[C@H](C)/C=C(\C)[C@@H](O)[C@@H](OC)C(=O)[C@H](C)C[C@H](C)/C=C/C=C/C=C(\C)[C@@H](NCCS(=O)(=O)O)C[C@@H]3CC[C@@H](C)[C@@](O)(O3)C(=O)C(=O)N3CCCC[C@H]3C(=O)O2)CC[C@H]1OCCO [Compound 40]
5 |  |  | 26 nM |  | CO[C@@H]1C[C@H](C[C@@H](C)[C@@H]2CC[C@H](C)/C=C(\C)[C@@H](O)[C@@H](OC)C(=O)[C@H](C)C[C@H](C)/C=C/C=C/C=C(\C)[C@H](NS(C)(=O)=O)C[C@@H]3CC[C@@H](C)[C@@](O)(O3)C(=O)C(=O)N3CCCC[C@H]3C(=O)O2)CC[C@H]1OP(C)(C)=O [Compound 23]

Second part, the molecule before the results:

Row | Structure (SMILES) | Kd [1] | Kd [2] | IC50 [3] | Kd [4]
6 | CCS(=O)(=O)N[C@@H]1C[C@@H]2CC[C@@H](C)[C@@](O)(O2)C(=O)C(=O)N2CCCC[C@H]2C(=O)O[C@H]([C@H](C)C[C@@H]2CC[C@@H](O)[C@H](OC)C2)CC[C@H](C)/C=C(\C)[C@@H](O)[C@@H](OC)C(=O)[C@H](C)C[C@H](C)/C=C/C=C/C=C/1C [Compound 4] | 256 nM | 315 nM | 1.2 nM | 0.55 nM
7 | CO[C@@H]1C[C@H](C[C@@H](C)[C@@H]2CC[C@H](C)/C=C(\C)[C@@H](O)[C@@H](OC)C(=O)[C@H](C)C[C@H](C)/C=C/C=C/C=C(\C)[C@H](NS(=O)(=O)C3CC3)C[C@@H]3CC[C@@H](C)[C@@](O)(O3)C(=O)C(=O)N3CCCC[C@H]3C(=O)O2)CC[C@H]1O [Compound 12] | 135 nM | 117 nM | 1.1 nM | 0.39 nM
8 | CCS(=O)(=O)N[C@H]1C[C@@H]2CC[C@@H](C)[C@@](O)(O2)C(=O)C(=O)N2CCCC[C@H]2C(=O)O[C@H]([C@H](C)C[C@@H]2CC[C@@H](O)[C@H](OC)C2)CC[C@H](C)/C=C(\C)[C@@H](O)[C@@H](OC)C(=O)[C@H](C)C[C@H](C)/C=C/C=C/C=C/1C [Compound 3] | 61 nM | 40 nM | 0.26 nM | 0.2 nM
9 | CO[C@@H]1C[C@H](C[C@@H](C)[C@@H]2CC[C@H](C)/C=C(\C)[C@@H](O)[C@@H](OC)C(=O)[C@H](C)C[C@H](C)/C=C/C=C/C=C(\C)C(N(C)S(C)(=O)=O)C[C@@H]3CC[C@@H](C)[C@@](O)(O3)C(=O)C(=O)N3CCCC[C@H]3C(=O)O2)CC[C@H]1O (single isomer, unassigned) [Compound 42] | 1380 nM | 1230 nM | 0.3 nM | 6.5 nM
10 | CO[C@@H]1C[C@H](C[C@@H](C)[C@@H]2CC[C@H](C)/C=C(\C)[C@@H](O)[C@@H](OC)C(=O)[C@H](C)C[C@H](C)/C=C/C=C/C=C(\C)[C@@H](NS(=O)(=O)C3CC3)C[C@@H]3CC[C@@H](C)[C@@](O)(O3)C(=O)C(=O)N3CCCC[C@H]3C(=O)O2)CC[C@H]1O [Compound 11] | 63 nM | 45 nM | 0.94 nM | 0.29 nM
11 | CO[C@@H]1C[C@H](C[C@@H](C)[C@@H]2CC[C@H](C)/C=C(\C)[C@@H](O)[C@@H](OC)C(=O)[C@H](C)C[C@H](C)/C=C/C=C/C=C(\C)[C@H](NS(=O)(=O)CCCCl)C[C@@H]3CC[C@@H](C)[C@@](O)(O3)C(=O)C(=O)N3CCCC[C@H]3C(=O)O2)CC[C@H]1O [Compound 18] | 436 nM | 573 nM | 6.6 nM | 0.73 nM
12 | CO[C@@H]1C[C@H](C[C@@H](C)[C@@H]2CC[C@H](C)/C=C(\C)[C@@H](O)[C@@H](OC)C(=O)[C@H](C)C[C@H](C)/C=C/C=C/C=C(\C)[C@@H](NCCS(=O)(=O)O)C[C@@H]3CC[C@@H](C)[C@@](O)(O3)C(=O)C(=O)N3CCCC[C@H]3C(=O)O2)CC[C@H]1O [Compound 38] |  |  | > 500 nM | 
13 | CO[C@@H]1C[C@H](C[C@@H](C)[C@@H]2CC[C@H](C)/C=C(\C)[C@@H](O)[C@@H](OC)C(=O)[C@H](C)C[C@H](C)/C=C/C=C/C=C(\C)[C@@H](NS(C)(=O)=O)C[C@@H]3CC[C@@H](C)[C@@](O)(O3)C(=O)C(=O)N3CCCC[C@H]3C(=O)O2)CC[C@@H]1n1cnnn1 [Compound 22] |  |  | 0.11 nM | 
14 | CO[C@@H]1C[C@H](C[C@@H](C)[C@@H]2CC[C@H](C)/C=C(\C)[C@@H](O)[C@@H](OC)C(=O)[C@H](C)C[C@H](C)/C=C/C=C/C=C(\C)C(NC(=O)OC(C)(C)C)C[C@@H]3CC[C@@H](C)[C@@](O)(O3)C(=O)C(=O)N3CCCC[C@H]3C(=O)O2)CC[C@H]1O (some centres unmarked) [Intermediate 8] |  |  | 0.18 nM | 
